Earlier results as cited in patent publication US7560230B2, “Method for determining susceptibility of tumor to treatment with anti-neoplastic agent” (Threshold Pharmaceuticals, Inc., priority 2003, dated 2009).

Columns and labels:
Conditions in all cases: sodium-dependent transport
[1] = tested on: SGLT3
[2] = target: T1, SGLT2 (Homo sapiens, UniProt P31639)
T1 sequence (P31639 1-672): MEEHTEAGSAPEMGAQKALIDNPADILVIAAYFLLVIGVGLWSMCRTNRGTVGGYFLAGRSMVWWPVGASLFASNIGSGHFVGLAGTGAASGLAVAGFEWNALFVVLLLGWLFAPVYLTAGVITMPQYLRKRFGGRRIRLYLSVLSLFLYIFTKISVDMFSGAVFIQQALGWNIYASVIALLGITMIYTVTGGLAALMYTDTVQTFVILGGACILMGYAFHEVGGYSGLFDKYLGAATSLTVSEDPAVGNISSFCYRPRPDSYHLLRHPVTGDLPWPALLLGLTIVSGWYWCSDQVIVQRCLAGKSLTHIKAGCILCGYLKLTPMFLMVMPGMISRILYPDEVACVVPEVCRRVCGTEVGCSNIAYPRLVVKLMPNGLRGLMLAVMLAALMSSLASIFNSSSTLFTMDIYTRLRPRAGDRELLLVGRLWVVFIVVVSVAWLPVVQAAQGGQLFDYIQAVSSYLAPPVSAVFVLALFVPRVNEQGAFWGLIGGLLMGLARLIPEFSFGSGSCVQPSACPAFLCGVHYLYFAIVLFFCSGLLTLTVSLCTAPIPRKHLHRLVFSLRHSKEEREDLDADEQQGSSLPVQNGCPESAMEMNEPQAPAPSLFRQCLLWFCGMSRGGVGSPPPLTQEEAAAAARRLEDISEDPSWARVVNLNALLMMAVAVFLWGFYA

[3] = target: T2, SGLT1 (Homo sapiens, UniProt P13866)
T2 sequence (P13866 1-664): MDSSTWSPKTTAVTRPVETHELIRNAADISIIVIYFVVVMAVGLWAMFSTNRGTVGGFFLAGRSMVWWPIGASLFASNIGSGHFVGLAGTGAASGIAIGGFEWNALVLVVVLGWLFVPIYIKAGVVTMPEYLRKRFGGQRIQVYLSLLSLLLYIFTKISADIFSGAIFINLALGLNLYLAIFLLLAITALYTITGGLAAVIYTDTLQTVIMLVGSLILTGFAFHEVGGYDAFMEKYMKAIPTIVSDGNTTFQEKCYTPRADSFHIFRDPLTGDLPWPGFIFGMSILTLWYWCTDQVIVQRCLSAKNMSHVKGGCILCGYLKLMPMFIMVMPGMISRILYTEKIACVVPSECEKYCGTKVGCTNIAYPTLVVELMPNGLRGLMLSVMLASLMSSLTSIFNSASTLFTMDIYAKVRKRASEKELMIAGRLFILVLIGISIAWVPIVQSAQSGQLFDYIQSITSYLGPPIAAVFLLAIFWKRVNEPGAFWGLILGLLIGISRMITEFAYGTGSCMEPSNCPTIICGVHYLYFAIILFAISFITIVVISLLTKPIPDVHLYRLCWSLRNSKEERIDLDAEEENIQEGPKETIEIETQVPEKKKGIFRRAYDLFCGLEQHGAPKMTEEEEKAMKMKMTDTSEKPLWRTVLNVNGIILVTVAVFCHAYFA

## CO[C@H]1O[C@H](CO)[C@@H](O)[C@H](O)[C@H]1O [a-MDG, a-methyl-D-glucoside]
[1]
  apparent affinity (K0.5): 2 mM
[2]
  apparent affinity (K0.5): 2 mM
[3]
  apparent affinity (K0.5): 0.4 mM
